Experimental data from patent publication US7208517B1, “Endothelin antagonists” (Abbott Labortories, priority 1994, dated 2007).

Tests used:
Assay type in all cases: in vivo, human
[1] = tested on: male subjects with hormone refractory prostate cancer; assay: Acid phosphatase levels in serum of treated subjects; conditions: subjects treated with placebo or 2.5 mg or 10 mg
Experimental: (§1) Studies were performed on male subjects with asymptomatic hormone refractory prostate cancer with rising PSA levels and on male subjects with symptomatic hormone refractory prostate cancer with rising PSA levels and pain. Subjects in the phase II studies had castrate levels of testosterone, either due to pharmacologic intervention, via leuprolide (Lupron®) or goserelin (Zoladex®), or via surgical castration. Subjects received ABT-627 or placebo. The following tests were conducted:
(§2) ABT-627 was formulated in 2.5 and 10 mg doses. An oral liquid formulation of ABT-627 was also prepared as follows: 1 mg/ml ABT-627, 50% glycerin, 14% alcohol, and water. Matching placebos were also provided.
The enzyme Acid Phosphatase (ACP) catalyzes the hydrolysis of alpha-naphthyl phosphate to alpha-naphthol and inorganic phosphate. The alpha-naphthol immediately reacts with fast red TR salt to produce a yellow chromophore with an absorbance maximum at 405 nm. The rate of increase in absorbance at 405 nm is directly proportional to ACP activity in the sample. ACP activity was determined in the presence and absence of L-tartrate, the difference being attributed to prostatic acid phosphatase activity.
Briefly, a subject population was treated with a placebo or 2.5 mg or 10 mg of ABT-627. […] The mixture was incubated for another 5 minutes, and a second absorbance was read to provide a final absorbance. […]

[2] = tested on: male subjects with hormone refractory prostate cancer; assay: Bone alkaline phosphatase (BAP) levels of treated subjects; conditions: subjects treated versus placebo
Experimental: as §1, §2
Markers of osteoblastic activity were assessed using […]. Bone markers include bone alkaline phosphatase (BAP), deoxypridinoline, and N-telopeptide of Type I collagen. Blood samples were collected prior to dosing on Day 1, Day 42, Day 84, Day 168, and every 28 days after Day 168, with a final collection on the last day of the study.
Bone Alkaline Phosphatase levels were determined using the bone-specific Alkphase-B® assay published by Metra Biosystems (Mountain View, Calif.).

[3] = tested on: male subjects with hormone refractory prostate cancer; assay: Prostate specific antigen (PSA) level assay in serum of treated subjects; conditions: subjects treated with placebo or 2.5 mg or 10 mg
Experimental: as §1, §2
A number of recognized or putative biochemical markers of disease progression have been used to monitor treatment of individuals with prostate cancer. […]
The effect of ABT-627 administeration on prostate specific antigen (PSA) levels in human subject serum samples was determined using the procedure described in the Chiron Diagnostics ACS: Centaur PSA2 Assay. […]
Briefly, a subject population was treated with a placebo or 2.5 mg or 10 mg of ABT-627. […] A direct relationship exists between the amount of PSA present in the patient sample and the RLU's (relative light units) detected.

For `CCCCCN(CCCC)C(=O)CN1C[C@H](c2ccc3c(c2)OCO3)[C@@H](C(=O)O)[C@@H]1c1ccc(OC)cc1` [ABT-627], the “rate of increase and average change from baseline for acid phosphatase (AUC, FIG. 7)” value [1] was “the rate of increase and the average change from baseline for acid phosphatase was decreased”, the “BAP levels (AUC, FIG. 5)” value [2] was “BAP levels decreased” and the “rate of increase of PSA in serum (AUC, FIG. 2)” value [3] was “rate of increase of PSA in the serum samples decreases”.
